Experimental data from patent US20240270748A1 (Merck Patent GmbH, priority 2021, published 2024).

How the values were obtained:
YAP-TEAD interaction = experiment: SK-HEP-1 reporter assay (8xTEAD responsive elements driving NanoLuc luciferase); type: cell-based
Summary of the method: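 Reporter read-out: NanoLuc luminescence from 8×TEAD elements stably integrated in SK-HEP-1 cells, after 24 h compound exposure at 37° C. Ten concentrations tested in duplicate, top 30 μM final, 0.3% DMSO; IC50 from curve.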

NCI-H226 cells = experiment: Viability assay in NCI-H226 (Yap-dependent) cells, CyQuant; type: cell-based, human
Summary of the method: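 Seeded cells were dosed 24 h later in duplicate (10-point, 1:3 dilutions, top 30 μM final, 0.3% DMSO) and incubated 96 h at 37 °C. Viability was read with CyQUANT DNA dye after 1 h, fluorescence bottom read. NCI-H226 in RPMI 1640 medium; SW620 YAP/TAZ CRISPR knockout in DMEM/F-12 medium.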

SW620 Yap KO cells = experiment: Viability assay in SW620 Yap KO (Yap independent) cells, CyQuant; type: cell-based
Experimental: Viability Assay in NCI-H226 (Yap-Dependent) and SW620 Yap KO (Yap Independent) Cells
The ability of YAP-TEAD inhibitors to inhibit tumor cell growth was evaluated using two different cell lines: NCI-H226, which is a YAP dependent cell line, and SW620 cells, where YAP and TAZ were knocked out using CRISPR to generate a YAP independent cell line.
For the assay, cells were treated in duplicates with the test compounds in a 10-point dose, 1:3 dilution steps, with the top concentration starting at 30 μM (final concentration in assay). After a 96 hour incubation at 37° C., 95% rH, and 5% CO2, a cell-permeant DNA-binding dye that stains only healthy cells (CyQUANT®, Promega) was added to the cells, allowing the quantification of cell viability.
Cell Media: The NCI-H226 cells were cultured in the following media: RPMI 1640, +10% FBS, +1× GlutaMAX, +10 mM HEPES, +0.5% Pen/Strep. The SW620-KO cells were cultured in the following media: DMEM/F-12, +10% FBS, +1× GlutaMAX, +10 mM HEPES, +0.5% Pen/Strep.
Reagents: The reagents used are listed below:
Cell culture: The cells were examined using an inverted microscope to check for health, cell density, etc. To dissociate adherent cells, the monolayer of cells was washed once with pre-warmed PBS. After removing the PBS, 3 ml pre-warmed Accutase was added to a F75 flask, dispersed evenly and the flask was allowed to sit in incubator for ˜4-5 minutes.
When a single cell suspension was obtained, 7 ml of prewarmed growth media was added and resuspended with the cells. The cell suspension was transferred to a sterile 15 ml conical centrifuge tube, and spun for 5 min at 300×g, RT. The supernatant was discarded and the pellet was resuspended in 10 ml of pre-warmed growth media.
The total cell count was determined, and 20 μl of the desired cell number was added to each well of a 384 well plate using a Multidrop Combi. The plates were then incubated for 24 hours at 37° C., 95% rH, and 5% CO2.
Compound treatment: 24 hours after seeding, the cells were treated with compounds.
A 1:333 dilution of compounds, diluted in DMSO, was made to get a final concentration of 0.3% DMSO per well. To transfer the compounds to the assay plate, […] was shot from Labcyte low dead volume plates to the cell plates containing 20 μl media/well with the ECHO 555 liquid handling system.
After treatment, the cells were fed with 20 μl fresh pre-warmed assay media using a Multidrop combi.
The assay plates were then incubated for 96 h at 37° C., 95% rH, and 5% CO2.
96 h after treatment 30 μl of CyQuant® reagent was added to the assay plates using a Multidrop combi in the dark. The plates were then incubated for 1 hour at 37° C., 95% rH and 5% CO2. Thereafter, the assay plates were removed from the incubator and allowed to equilibrate to RT for 30 min in the dark without lid. Finally, they were measured using an EnVision microplate reader with a FITC bottom read program.

[1] = Homo sapiens, SK-HEP1, SK-HEP-1 reporter assay, class symbols
[2] = Homo sapiens, NCI-H226, 96 h, class symbols
[3] = Homo sapiens, SW-620, 96 h, n.d. = value not detectable below threshold given in parentheses
[4] = Homo sapiens, SK-HEP1, SK-HEP-1 reporter assay, n.d. = value not detectable below threshold given in parentheses
[5] = Homo sapiens, SW-620, 96 h, class symbols
[6] = Homo sapiens, SW-620, 96 h, n.d. = value not detectable below threshold given in parentheses, ND = not determinable within the entire range
[7] = Homo sapiens, SK-HEP1, SK-HEP-1 reporter assay, n.d. = value not detectable below threshold given in parentheses, ND = not determinable within the entire range

Row | IC50 (YAP-TEAD interaction; [1]) [nM] | IC50 (NCI-H226 cells; [2]) [nM] | IC50 (SW620 Yap KO cells; [6]) [nM] | Structure (SMILES) | also measured
1 | 10 to 100 | 1 to 100 | – | C[C@H](NC(=O)c1ccc2c(c1)c1nn(C)nc1n2-c1ccc(C(F)(F)F)cc1)c1ccncc1 [Example C185, 2-methyl-N-[(1S)-1-(pyridin-4-yl)ethyl]-4-[4-(trifluoromethyl)phenyl]-2H,4H-[1,2,3]triazolo[4,5-b]indole-7-carboxamide] | IC50 (SW620 Yap KO cells; [3]): > 3000 nM
2 | – | 100 to 1000 | – | Cn1cc2c3cc(C(=O)N=[S@](=O)(CCO)Cc4ccncc4)ccc3n(-c3ccc(C(F)(F)F)cc3)c2n1 (single isomer, unassigned) [Example C253] | IC50 (YAP-TEAD interaction; [4]): > 6500 nM; IC50 (SW620 Yap KO cells; [5]): 1000 to 10000 nM
3 | 10 to 100 | 1 to 100 | – | Cn1cc2c3cc(C(=O)O)ccc3n(-c3ccc(C(F)(F)F)c(F)c3)c2n1 [Example C164, 8-[3-fluoro-4-(trifluoromethyl)phenyl]-2-methyl-2H,8H-pyrazolo[3,4-b]indole-5-carboxylic acid] | IC50 (SW620 Yap KO cells; [3]): > 30000 nM
4 | 10 to 100 | 1 to 100 | > 30000 | Cc1snc2c1c1cc(C(=O)N[C@](C)(CO)c3ccccc3)ccc1n2-c1ccc(C(F)(F)F)cc1 [Example C80, N-[(2S)-1-hydroxy-2-phenylpropan-2-yl]-3-methyl-8-[4-(trifluoromethyl)phenyl]-8H-[1,2]thiazolo[3,4-b]indole-5-carboxamide] | –
5 | – | 1 to 100 | > 30000 | Cn1cc2c3cc(C(=O)N=S(C)(C)=O)ccc3n(-c3ccc(C(F)(F)F)cn3)c2n1 [Example C149, N-[dimethyl(oxo)-λ^6-sulfanylidene]-2-methyl-8-[5-(trifluoromethyl)pyridin-2-yl]-2H,8H-pyrazolo[3,4-b]indole-5-carboxamide] | IC50 (YAP-TEAD interaction; [7]): > 320 nM
6 | 10 to 100 | 1 to 100 | > 30000 | C[C@H](NC(=O)c1ccc2c(n1)c1cn(C)nc1n2-c1ccc(C(F)(F)F)cc1)c1ccccn1 [Example C119, 4-methyl-N-[(1S)-1-(pyridin-2-yl)ethyl]-7-[4-(trifluoromethyl)phenyl]-4,5,7,12-tetraazatricyclo[6.4.0.0^2,6]dodeca-1(8),2,5,9,11-pentaene-11-carboxamide] | –
7 | 10 to 100 | 100 to 1000 | – | Cc1cc(C(CO)NC(=O)c2ccc3c(c2)c2cn(C)nc2n3-c2ccc(C(F)(F)F)cc2)ccn1 (stereo not drawn) [Example C219, N-[2-hydroxy-1-(2-methylpyridin-4-yl)ethyl]-2-methyl-8-[4-(trifluoromethyl)phenyl]-2H,8H-pyrazolo[3,4-b]indole-5-carboxamide] | IC50 (SW620 Yap KO cells; [3]): > 3000 nM
8 | – | 100 to 1000 | – | Cn1cc2c3cc(C(=O)N=[S@](=O)(CCCO)Cc4cccnc4)ccc3n(-c3ccc(C(F)(F)F)cc3)c2n1 (single isomer, unassigned) [Example C201] | IC50 (YAP-TEAD interaction; [4]): > 300 nM; IC50 (SW620 Yap KO cells; [5]): 1000 to 10000 nM
9 | 100 to 10000 | 1 to 100 | – | C[C@H](NC(=O)c1ccc2c(c1)c1nn(C)nc1n2-c1ccc(C(F)(F)F)cc1)c1cccc(N)n1 [Example C183, N-[(1S)-1-(6-aminopyridin-2-yl)ethyl]-2-methyl-4-[4-(trifluoromethyl)phenyl]-2H,4H-[1,2,3]triazolo[4,5-b]indole-7-carboxamide] | IC50 (SW620 Yap KO cells; [3]): > 3000 nM
10 | 10 to 100 | 1 to 100 | – | Cn1cc2c3cc(C(=O)N[C@@H](CO)c4ccccn4)ccc3n(-c3ccc(C(F)(F)F)c(F)c3)c2n1 [Example C169, 8-[3-fluoro-4-(trifluoromethyl)phenyl]-N-[(1R)-2-hydroxy-1-(pyridin-2-yl)ethyl]-2-methyl-2H,8H-pyrazolo[3,4-b]indole-5-carboxamide] | IC50 (SW620 Yap KO cells; [3]): > 3200 nM

Further lines, the compound ahead of its results:

Row | Structure (SMILES) | IC50 (YAP-TEAD interaction; [1]) [nM] | IC50 (NCI-H226 cells; [2]) [nM] | IC50 (SW620 Yap KO cells; [6]) [nM] | also measured
11 | Cn1cnc2c1c1cc(C3CC(Cl)=NO3)ccc1n2-c1ccc(C(F)(F)F)cc1 (stereo not drawn) [Example C198, 3-chloro-5-{1-methyl-4-[4-(trifluoromethyl)phenyl]-1H,4H-imidazo[4,5-b]indol-7-yl}-4,5-dihydro-1,2-oxazole] | 10 to 100 | 1 to 100 | – | IC50 (SW620 Yap KO cells; [3]): > 3000 nM
12 | Cc1snc2c1c1cc(C(=O)N=S(C)(=O)CCCO)ccc1n2-c1ccc(C(F)(F)F)cc1 (single isomer, unassigned) [Example C104] | – | 1 to 100 | > 3200 | IC50 (YAP-TEAD interaction; SK-HEP-1 reporter assay, class symbols): 10 to 100 nM
13 | Cn1cc2c3cc(C(=O)O)ccc3n(C34CC(C(F)(F)F)(C3)C4)c2n1 [Example C28, 2-methyl-8-[3-(trifluoromethyl)-bicyclo[1.1.1]pentan-1-yl]-2H,8H-pyrazolo[3,4-b]indole-5-carboxylic acid] | 10 to 100 | – | > 30000 | IC50 (NCI-H226 cells; Homo sapiens, NCI-H226, 96 h, n.d. = value not detectable below threshold given in parentheses): > 10000 nM
14 | CNC(=O)c1ccc2c(c1)c1cn(C)nc1n2C12CC(C(F)(F)F)(C1)C2 [Example C125, N,2-dimethyl-8-[3-(trifluoromethyl)bicyclo[1.1.1]pentan-1-yl]-2H,8H-pyrazolo[3,4-b]indole-5-carboxamide] | 10 to 100 | 100 to 1000 | > 3000 | –
15 | Cn1cc2c3cc(NS(C)(=O)=O)ccc3n(-c3ccc(C(F)(F)F)cc3)c2n1 [Example C6, N-{2-methyl-8-[4-(trifluoromethyl)phenyl]-2H,8H-pyrazolo[3,4-b]indol-5-yl}methanesulfonamide] | 1 to 10 | 1 to 100 | > 9500 | –
16 | Cn1cc2c3cc(S(=O)(=O)NCCCO)ccc3n(-c3ccc(C(F)(F)F)cc3)c2n1 [Example C85, N-(3-hydroxypropyl)-2-methyl-8-[4-(trifluoromethyl)phenyl]-2H,8H-pyrazolo[3,4-b]indole-5-sulfonamide] | – | 1000 to 10000 | > 30000 | IC50 (YAP-TEAD interaction; [7]): > 30000 nM
17 | Cn1nnc2c3cc(-c4noc(=O)[nH]4)ccc3n(-c3ccc(C(F)(F)F)cc3)c21 [Example C3, 3-{2-methyl-4-[4-(trifluoromethyl)phenyl]-3H,4H-[1,2,3]triazolo[4,5-b]indol-7-yl}-4,5-dihydro-1,2,4-oxadiazol-5-one] | 10 to 100 | 100 to 1000 | > 30000 | –
18 | Cn1nc2c3cc(C(=O)NC[C@@H](O)C(F)(F)F)ccc3n(-c3ccc(C(F)(F)F)cc3)c2n1 [Example C160, 2-methyl-N-[(2R)-3,3,3-trifluoro-2-hydroxypropyl]-4-[4-(trifluoromethyl)phenyl]-2H,4H-[1,2,3]triazolo[4,5-b]indole-7-carboxamide] | 10 to 100 | 1 to 100 | > 30000 | –
19 | Cn1cc2c3cc(C(=O)NC(CO)c4ccccn4)ccc3n(-c3ccc(C(F)(F)F)nc3)c2n1 (single isomer, unassigned) [Example C124] | – | – | – | IC50 (YAP-TEAD interaction; [7]): > 30000 nM; IC50 (NCI-H226 cells; 96 h, class symbols): 1000 to 10000 nM; IC50 (SW620 Yap KO cells; 96 h, n.d. = value not detectable below threshold given in parentheses, ND = not determinable within the entire range): > 30000 nM
20 | Cc1snc2c1c1cc(C(=O)NC[C@@H](C)O)ccc1n2-c1ccc(C(F)(F)F)cc1 [Example C90, N-[(2R)-2-hydroxypropyl]-3-methyl-8-[4-(trifluoromethyl)phenyl]-8H-[1,2]thiazolo [3,4-b]indole-5-carboxamide] | 10 to 100 | 1 to 100 | > 3200 | –
21 | Cn1nc2c3cc(C(=O)N=[S@](=O)(CCO)Cc4ccccn4)ccc3n(-c3ccc(C(F)(F)F)cc3)c2n1 (single isomer, unassigned) [Example C161] | 10 to 100 | 1 to 100 | > 3000 | –
